# Assays:
# Plasmodium falciparum [1] = experiment: microbe, parasite or virus in culture; conditions: NF54
# Description: Antimalarial activity against CQ-sensitive Plasmodium falciparum NF54
# PC-3 = experiment: Antiproliferative activity against human PC-3 cells; type: functional, cell-based
# Plasmodium falciparum [2] = experiment: microbe, parasite or virus in culture
# Description: Antimalarial activity against Plasmodium falciparum
# [3] = biological target: Hepatocyte growth factor receptor (Homo sapiens, UniProt P08581); experiment: Inhibition of c-Met (unknown origin)
# MCF7 = experiment: Antiproliferative activity against human MCF7 cells; type: functional, cell-based; conditions: Homo sapiens, MCF7
# Plasmodium falciparum [4] = experiment: Antimalarial activity against CQ-resistant Plasmodium falciparum W2; type: functional, organism-based
# Plasmodium falciparum [5] = experiment: Antimalarial activity against CQ-sensitive Plasmodium falciparum D6; type: functional, organism-based
# Plasmodium falciparum [6] = experiment: Antimalarial activity against CQ-sensitive Plasmodium falciparum 3D7; type: functional, organism-based
# [7] = Binding affinity to human nRNP
# Plasmodium falciparum [8] = experiment: Antimalarial activity against CQ-resistant Plasmodium falciparum K1; type: functional, organism-based
# [9] = biological target: Cathepsin B (Homo sapiens) (UniProt P07858); experiment: Inhibition of human cathepsin B exopeptidase activity at 50 uM relative to control
# HepG2 = experiment: Cytotoxicity against human HepG2 cells; type: functional, cell-based; conditions: Homo sapiens, HepG2
# [10] = biological target: Lysine-specific demethylase 6B (Homo sapiens) (UniProt O15054); experiment: Inhibition of JMJD3 (unknown origin) at 25 uM relative to control
# Sequence of Lysine-specific demethylase 6B (Homo sapiens) (O15054 whole entry): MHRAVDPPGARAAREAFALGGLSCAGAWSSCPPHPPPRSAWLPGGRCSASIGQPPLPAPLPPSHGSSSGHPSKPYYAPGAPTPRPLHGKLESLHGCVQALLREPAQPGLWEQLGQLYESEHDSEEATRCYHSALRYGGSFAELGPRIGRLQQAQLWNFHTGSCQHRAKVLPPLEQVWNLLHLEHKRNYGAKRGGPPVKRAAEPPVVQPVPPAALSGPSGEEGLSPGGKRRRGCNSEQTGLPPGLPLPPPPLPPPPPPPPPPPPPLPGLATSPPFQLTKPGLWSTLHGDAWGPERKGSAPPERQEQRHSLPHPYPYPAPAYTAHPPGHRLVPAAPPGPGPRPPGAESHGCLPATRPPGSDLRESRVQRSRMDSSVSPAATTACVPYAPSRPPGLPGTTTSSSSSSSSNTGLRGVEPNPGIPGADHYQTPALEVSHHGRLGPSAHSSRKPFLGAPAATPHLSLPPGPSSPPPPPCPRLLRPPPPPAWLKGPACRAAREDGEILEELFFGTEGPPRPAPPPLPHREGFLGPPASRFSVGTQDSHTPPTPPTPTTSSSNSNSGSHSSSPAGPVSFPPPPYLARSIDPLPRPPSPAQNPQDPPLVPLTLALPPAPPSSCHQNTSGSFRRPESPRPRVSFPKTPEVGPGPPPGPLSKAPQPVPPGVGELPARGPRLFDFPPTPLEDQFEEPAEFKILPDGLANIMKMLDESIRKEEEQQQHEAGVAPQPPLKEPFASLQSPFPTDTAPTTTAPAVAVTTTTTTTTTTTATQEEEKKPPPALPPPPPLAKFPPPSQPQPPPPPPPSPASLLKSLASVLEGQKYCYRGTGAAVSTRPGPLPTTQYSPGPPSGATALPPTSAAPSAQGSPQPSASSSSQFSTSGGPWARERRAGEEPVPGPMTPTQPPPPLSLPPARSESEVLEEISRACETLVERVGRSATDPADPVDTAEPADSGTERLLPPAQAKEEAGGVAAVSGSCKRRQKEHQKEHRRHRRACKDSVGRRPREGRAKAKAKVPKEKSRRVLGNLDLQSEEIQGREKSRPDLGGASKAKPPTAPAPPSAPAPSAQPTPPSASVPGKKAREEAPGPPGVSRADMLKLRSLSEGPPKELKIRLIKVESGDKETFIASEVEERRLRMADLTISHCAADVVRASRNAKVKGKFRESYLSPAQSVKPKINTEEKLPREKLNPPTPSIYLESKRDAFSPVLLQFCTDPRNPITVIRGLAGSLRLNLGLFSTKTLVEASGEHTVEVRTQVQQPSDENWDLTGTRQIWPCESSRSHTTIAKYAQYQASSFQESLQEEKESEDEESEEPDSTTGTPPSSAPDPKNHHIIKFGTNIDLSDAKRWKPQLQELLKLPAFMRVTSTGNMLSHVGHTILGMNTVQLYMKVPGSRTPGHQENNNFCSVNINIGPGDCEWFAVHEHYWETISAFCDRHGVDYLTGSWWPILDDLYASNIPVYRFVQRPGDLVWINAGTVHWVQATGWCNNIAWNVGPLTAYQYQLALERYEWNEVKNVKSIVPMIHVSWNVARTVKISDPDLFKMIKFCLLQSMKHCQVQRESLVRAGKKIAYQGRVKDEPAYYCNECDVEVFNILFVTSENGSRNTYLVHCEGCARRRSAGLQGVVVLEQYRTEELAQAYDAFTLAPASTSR
# HCT-116 = experiment: Cytotoxicity against human HCT-116 cells; type: functional, cell-based
# Sequence of Hepatocyte growth factor receptor (P08581 whole entry): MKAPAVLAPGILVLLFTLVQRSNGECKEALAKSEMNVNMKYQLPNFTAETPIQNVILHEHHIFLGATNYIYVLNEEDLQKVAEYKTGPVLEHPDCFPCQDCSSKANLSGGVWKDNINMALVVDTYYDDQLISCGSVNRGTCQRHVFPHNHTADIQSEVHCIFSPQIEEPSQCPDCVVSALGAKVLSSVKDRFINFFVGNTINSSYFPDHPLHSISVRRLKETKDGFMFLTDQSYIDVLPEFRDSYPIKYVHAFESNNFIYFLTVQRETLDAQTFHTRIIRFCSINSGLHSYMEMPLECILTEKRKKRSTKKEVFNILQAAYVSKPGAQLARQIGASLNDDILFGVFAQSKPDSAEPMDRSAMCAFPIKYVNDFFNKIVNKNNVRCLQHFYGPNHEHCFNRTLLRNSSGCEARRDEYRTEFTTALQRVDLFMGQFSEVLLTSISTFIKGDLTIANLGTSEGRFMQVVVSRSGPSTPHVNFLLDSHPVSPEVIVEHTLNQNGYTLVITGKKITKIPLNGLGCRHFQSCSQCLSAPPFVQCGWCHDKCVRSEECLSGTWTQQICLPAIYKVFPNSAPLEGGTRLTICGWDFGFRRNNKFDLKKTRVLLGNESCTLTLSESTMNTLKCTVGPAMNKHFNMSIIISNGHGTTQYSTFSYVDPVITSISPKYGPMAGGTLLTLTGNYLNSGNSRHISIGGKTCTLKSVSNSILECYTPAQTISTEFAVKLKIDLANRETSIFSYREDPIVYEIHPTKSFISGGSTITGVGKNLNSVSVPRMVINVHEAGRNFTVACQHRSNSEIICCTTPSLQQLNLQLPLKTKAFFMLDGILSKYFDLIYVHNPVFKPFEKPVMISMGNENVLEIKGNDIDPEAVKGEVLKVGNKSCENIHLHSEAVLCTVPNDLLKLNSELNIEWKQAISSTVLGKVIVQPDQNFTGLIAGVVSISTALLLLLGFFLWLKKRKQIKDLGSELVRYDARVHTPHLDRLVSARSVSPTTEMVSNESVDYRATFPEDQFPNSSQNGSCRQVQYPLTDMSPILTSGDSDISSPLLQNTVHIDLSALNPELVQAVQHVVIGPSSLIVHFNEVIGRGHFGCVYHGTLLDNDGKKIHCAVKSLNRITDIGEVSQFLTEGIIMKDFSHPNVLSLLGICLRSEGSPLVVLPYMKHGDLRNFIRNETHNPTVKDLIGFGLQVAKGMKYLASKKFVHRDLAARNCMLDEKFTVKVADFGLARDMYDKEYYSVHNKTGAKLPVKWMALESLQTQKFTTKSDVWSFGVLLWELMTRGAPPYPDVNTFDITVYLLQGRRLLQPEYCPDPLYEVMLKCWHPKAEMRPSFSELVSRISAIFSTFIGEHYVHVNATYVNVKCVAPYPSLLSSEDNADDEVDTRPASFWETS
structure (smiles),measurement,setting,value
CC1(C)CC(NCc2cc3cccc(Cl)c3nc2N2CCCC2)CCO1 (stereo not given),IC50,Plasmodium falciparum [1],24 nM
CC(O)(CS(=O)(=O)c1ccc(F)cc1)C(=O)Nc1ccc(C#N)c(C(F)(F)F)c1 (stereo not given) [BICALUTAMIDE],IC50,PC-3,1300 nM
COc1ccc2nc(-c3ccccc3)cc(C(=O)O)c2c1,IC50,Plasmodium falciparum [2],0.12 µg/mL
Cn1cc(-c2ccc3nnc(C(F)(F)c4ccc5ncccc5c4)n3n2)cn1 [JNJ-38877605],IC50,[3],1.7 nM
Cc1cc(C)c(S(=O)(=O)Oc2ccc(Cl)c3cccnc23)c(C)c1,IC50,MCF7,1380 nM
CCCCCCCOc1c(OC)cc(NC(C)CCCN)c2nc(C(C)(C)C)ccc12 (stereo not given),IC50,Plasmodium falciparum [4],0.022 µg/mL
same,IC50,Plasmodium falciparum [5],0.02 µg/mL
Cc1nc2ccccc2c(C)c1C(=O)NNC(=S)Nc1ccccc1,IC50,Plasmodium falciparum [2],0.02 µg/mL
Cc1ccc2nc(-c3cn(-c4ccc(Cl)cc4)nc3-c3ccccc3)cc(C(=O)NCCCN(C)C)c2c1,IC50,Plasmodium falciparum [2],0.0879 µg/mL
CCCCCOc1c(OC)cc(NC(C)CCCN)c2nc(C(C)(C)C)ccc12 (stereo not given),IC50,Plasmodium falciparum [4],0.022 µg/mL
same,IC50,Plasmodium falciparum [5],0.02 µg/mL
COc1ccccc1NC(=S)NNC(=O)c1cc(-c2ccccc2Cl)nc2ccccc12,IC50,Plasmodium falciparum [2],< 0.3 µg/mL
O=C1c2ccc(N3CCN(CCO)CC3)cc2C(=O)N1CCCCNc1ccnc2cc(Cl)ccc12,IC50,Plasmodium falciparum [4],6 nM
O=C(/C=C/C(=O)Nc1cccc(F)c1)NCCCCNc1cc(C(F)(F)F)nc2c(C(F)(F)F)cccc12,IC50,Plasmodium falciparum [6],2900 nM
O=C(/C=C/c1cc(N2CCOCC2)c2cc(O)ccc2n1)c1ccc(Cl)cc1,Kd,[7],20100 nM
O=C1c2cccc(N3CCOCC3)c2C(=O)N1CCCCCCNc1ccnc2cc(Cl)ccc12,IC50,Plasmodium falciparum [4],6 nM
C#Cc1ccc(-c2cn(CCNc3ccnc4cc(Cl)ccc34)nn2)cc1F,IC50,Plasmodium falciparum [8],160 nM
same,IC50,Plasmodium falciparum [1],140 nM
O=C(NNC(=S)Nc1ccccc1)c1cc(-c2c(F)cccc2F)nc2ccc(C(F)(F)F)cc12,IC50,Plasmodium falciparum [2],0.1 µg/mL
FC(F)(F)c1ccc(-c2cncn2CCNc2ccnc3cc(Cl)ccc23)cc1,IC50,Plasmodium falciparum [8],290 nM
same,IC50,Plasmodium falciparum [6],79 nM
O=C(NNC(=S)NC1CCCCC1)c1cc(-c2ccccc2Cl)nc2ccccc12,IC50,Plasmodium falciparum [2],< 0.3 µg/mL
CCCCNC(=O)c1cc([N+](=O)[O-])c2cccnc2c1O,inhibition,[9],19.4%
OCCNCCNc1ccnc2cc(Cl)ccc12,IC50,Plasmodium falciparum [4],305 nM
same,IC50,Plasmodium falciparum [6],18.9 nM
COc1cccc(NC(=S)NNC(=O)c2cc(-c3ccc(C(F)(F)F)cc3)nc3ccc(F)cc23)c1,IC50,Plasmodium falciparum [2],0.1 µg/mL
O=C(O)c1cc(-c2ccccc2)nc2ccc(Cl)cc12,IC50,Plasmodium falciparum [2],0.12 µg/mL
Cc1cc(S(=O)(=O)c2ccc(C#N)cc2)c2ccccc2n1,IC50,MCF7,1380 nM
Clc1ccc2c(NCCn3cncc3C3CCCC3)ccnc2c1,IC50,Plasmodium falciparum [8],290 nM
same,IC50,Plasmodium falciparum [6],79 nM
C#Cc1ccc(-c2cn(CCNc3ccnc4cc(Cl)ccc34)nn2)c(F)c1,IC50,Plasmodium falciparum [8],160 nM
same,IC50,Plasmodium falciparum [1],140 nM
CC(C)(C)c1cncn1CCNc1ccnc2cc(Cl)ccc12,IC50,Plasmodium falciparum [8],290 nM
same,IC50,Plasmodium falciparum [6],79 nM
O=C(NNC(=S)Nc1ccc([N+](=O)[O-])cc1)c1cc(-c2ccc(F)cc2F)nc2ccc(F)cc12,IC50,Plasmodium falciparum [2],0.1 µg/mL
O=C1c2ccc(N3CCN(CCO)CC3)cc2C(=O)N1CCCNc1ccnc2cc(Cl)ccc12,IC50,Plasmodium falciparum [4],6 nM
O=C(N/N=C/c1cc(O)ccc1O)c1ccc(Nc2ccnc3ccccc23)cc1,IC50,HepG2,27300 nM
Cc1c(Cl)ccc2cc(/C=C/C(=O)c3ccc(Br)s3)c(Cl)nc12,IC50,Plasmodium falciparum [4],< 50 nM
same,IC50,Plasmodium falciparum [5],< 50 nM
COc1ccc(F)cc1-c1cnc2c(C(=O)O)ccc(C(=O)O)c2c1,inhibition,[10],0%
CCOC(=O)C(C#N)C(=O)c1cc(/C=C/c2ccc(N(C)C)cc2)nc2ccc(Br)cc12 (stereo not given),IC50,HepG2,7.7 µg/mL
same,IC50,HCT-116,7.7 µg/mL
O=C(NNC(=S)Nc1c(F)cccc1F)c1cc(-c2ccccc2Br)nc2c(Cl)cc(C(F)(F)F)cc12,IC50,Plasmodium falciparum [2],0.1 µg/mL
COc1cc2nccc(Oc3ccc(NC(=O)C4(C(=O)Nc5ccc(F)cc5)CC4)cc3)c2cc1O,IC50,[3],19 nM
C=C[C@@H]1CN2CC[C@@H]1C[C@@H]2[C@@H](O)c1ccnc2ccc(OC)cc12,IC50,Plasmodium falciparum [1],122 nM
CC(C)NC(=S)NNC(=O)c1cc(-c2ccccc2Cl)nc2ccccc12,IC50,Plasmodium falciparum [2],< 0.3 µg/mL
COc1ccc(C2CN3CCC2CC3[C@H](O)c2ccnc3ccc(OC)cc23)cc1 (mixture of isomers),IC50,Plasmodium falciparum [1],5 nM
CC(C)c1ccc(-c2cncn2CCNc2ccnc3cc(Cl)ccc23)cc1,IC50,Plasmodium falciparum [8],290 nM
same,IC50,Plasmodium falciparum [6],79 nM
CC(C)NC(=O)c1cc([N+](=O)[O-])c2cccnc2c1O,inhibition,[9],19.4%
O=C(NCc1ccccc1)c1cc([N+](=O)[O-])c2cccnc2c1O,inhibition,[9],19.4%
COc1ccc2nccc([C@@H](O)C3CC4CCN3CC4c3ccc(C(F)(F)F)cc3)c2c1 (mixture of isomers),IC50,Plasmodium falciparum [1],5 nM
[2H]c1ccc2cc(C(F)(F)c3nnc4ccc(-c5cnn(C)c5)nn34)ccc2n1,IC50,[3],2.6 nM
COc1ccc(Nc2ccnc3cc(-c4ccc(S(=O)(=O)N5CCN(C)CC5)cc4)ccc23)cc1Cl,EC50,Plasmodium falciparum [5],12 nM
COc1ncc(-c2cnc3c(C(=O)O)ccc(C(=O)O)c3c2)c(OC)n1,inhibition,[10],90%
